Laboratory results: patent publication US6894075B2, “4′-demethyl-4′-O-substituted-1-deoxypodophyllotoxin derivative and geometric isomer thereof, process for the preparation thereof and anti-cancer composition comprising the same” (priority 2000, dated 2005)
pEC50: −log10 of the molar value. Where two headings read alike, the source gives them in different places.

Legend:
[1] = test system: A549 cell; experiment: Cytotoxicity test (SRB method) for A549 cells; assay type: cell-based, human; conditions: for cytotoxicity compared with DPT: A549, in words; for EC50: A549 human lung cancer cell, SRB, read-out: ED50(nM) for A549; for EC50 / ED50(mg/mL) for A549: 48 hours incubation; for pEC50 / ED50(mg/mL) for A549: A549, SRB; for pEC50: Table 2, unit printed in the cell, read-out: ED50 for A549, cells marked; for ED50(mg/mL) for A549: Table 2
Description: (§1) Human lung carcinomas A549 and […] were used for determining cytotoxicity of the compounds of the present invention according to the Sulfrhodamine-B (SRB) method which was developed by NCI in 1989 in order to determine in vitro anticancer activity of drugs.
(§2) Cells to be used in the experiment were separated from a surface using 0.5% Trypsin-EDTA solution and suspended in a density of 5×10^4 cell/ml therein. The cell suspension was introduced into a 96-well plate in an amount of 180/well and incubated for 24 hours in a 5% CO2 incubator of 37° C. Samples were dissolved in dimethylsulfoxide and then diluted by water distilled in advance for three times just before the experiment. Forty-one (41) samples were prepared into 4 types of final concentrations, i.e., 0.1, 0.03, 0.01 and 0.003 mg per ml of the medium. The diluted sample solutions were added to the 96-well plate in the amount of 20 μl/well and incubated for 48 hours in a CO2 incubator of 37° C. At the time of adding the samples, Tz (Time zero) plate was taken. The medium was removed from the Tz plate and each of the plates after incubation were completed. Ten (10)% […] (TCA) was added in the amount of […], and allowed to stand for 1 hour at 4° C. to fix the cells on the bottom surface of the plate. After the cells were fixed, the plate was washed five to six times with water to completely remove the remaining TCA solution and then dried at room temperature to completely remove the moisture. To the fully dried plate was introduced a dye solution in the amount of […] in which 0.4% SRB was dissolved in 1% acetic acid solution. […] After the dyeing process, the plate was dried again at room temperature. 100 ml of 10 mM Tris solution was added thereto in order to dissolve the dye, and then O.D. (optical density) was determined by microplate reader at 520 nm.
(§3) ED50 values for cancer cells were calculated as follows. The amount of SRB protein was analyzed at the time when incubation started by the addition of the sample. This amount was named time zero (Tz). The O.D. value obtained from a group which was not treated by the sample was named Control group (C) and the O.D. value obtained from a group which was treated by the sample was named Test group (T).
(§4) The degree of cytotoxicity of the compounds was calculated from Tz, C and T values according to the following equation.
(§5) That is, in the case of Tz≧T, the degree was calculated by
(§6) (T−Tz)/(C−Tz)×100(%), and
(§7) • in the case of Tz<T, the degree was calculated by […].
(§8) From the values thus obtained, ED50 value which is defined as the concentration at which growth of the cancer cell is inhibited by 50% was calculated using the regression function of Excel program.

[2] = test system: SK-MEL-2 cell; experiment: Cytotoxicity test (SRB method) for SK-MEL-2 cells; assay type: cell-based, human; conditions: SK-MEL-2, SRB, 48 hours incubation
Description: as §1, §2, §3, §4, §5, §6, §7, §8

SMILES | EC50 [1] | ED50(mg/mL) for SK-MEL-2 [2] | ED50(mg/mL) for A549 [1] | other results
COc1cc(C2c3cc4c(cc3CC3COC(=O)C32)OCO4)cc(OC)c1OC(=O)[C@H](C)N (stereo partly drawn) [Compound 1a-1, 4′-demethyl-4′-O-alanoyl-1-deoxypodophyllotoxin] | 21.9 nM |  |  | cytotoxicity compared with DPT [1]: stronger cytotoxicity than DPT
COc1cc(C2c3cc4c(cc3CC3COC(=O)C32)OCO4)cc(OC)c1OC(=O)C(N)C(C)C (stereo not drawn) [Compound 1a-3, 4′-demethyl-4′-O-valinoyl-1-deoxypodophyllotoxin] | 88.2 nM |  |  | 
COc1cc(C2c3cc4c(cc3CC3COC(=O)C32)OCO4)cc(OC)c1OC(=O)CN (stereo not drawn) [Compound 1a-4, 4′-demethyl-4′-O-glycinoyl-1-deoxypodophyllotoxin] | 102 nM |  |  | 
COc1cc(C2c3cc4c(cc3CC3COC(=O)C32)OCO4)cc(OC)c1OC(=O)C(N)CO (stereo not drawn) [Compound 1a-5, 4′-demethyl-4′-O-serinoyl-1-deoxypodophyllotoxin] | 55 nM |  |  | cytotoxicity compared with DPT [1]: stronger cytotoxicity than DPT
COc1cc(C2c3cc4c(cc3CC3COC(=O)C32)OCO4)cc(OC)c1OC(=O)C(N)Cc1ccccc1 (stereo not drawn) [Compound 1a-7, 4′-demethyl-4′-O-phenylalanoyl-1-deoxypodophyllotoxin] | 86.6 nM |  |  | 
COc1cc(C2c3cc4c(cc3CC3COC(=O)C32)OCO4)cc(OC)c1OC(=O)[C@@H](N)Cc1ccc(O)cc1 (stereo partly drawn) [Compound 1a-9, 4′-demethyl-4′-O-tyrosinoyl-1-deoxypodophyllotoxin] | 104 nM |  |  | 
COc1cc(C2c3cc4c(cc3CC3COC(=O)C32)OCO4)cc(OC)c1OC(=O)Cc1ccc(N)cc1 (stereo not drawn) [Compound 1a-16, 4′-demethyl-4′-O-(4-aminophenylacetyl)-1-deoxypodophyllotoxin] | 114 nM |  |  | 
CCNC(=O)Oc1c(OC)cc(C2c3cc4c(cc3CC3COC(=O)C32)OCO4)cc1OC (stereo not drawn) [Compound 1b-1, 4′-demethyl-4′-O-ethylcarbamoyl-1-deoxypodophyllotoxin] | 132 nM |  |  | 
COc1cc(C2c3cc4c(cc3CC3COC(=O)C32)OCO4)cc(OC)c1OC(=O)NC(=O)CCl (stereo not drawn) [Compound 1b-6, 4′-demethyl-4′-O-chloroacetylcarbamoyl-1-deoxypodophyllotoxin] | 80.3 nM |  |  | 
C=CCNC(=O)Oc1c(OC)cc(C2c3cc4c(cc3CC3COC(=O)C32)OCO4)cc1OC (stereo not drawn) [Compound 1b-7, 4′-demethyl-4′-O-allylcarbamoyl-1-deoxypodophyllotoxin] | 90.5 nM |  |  | 
COc1cc(C2c3cc4c(cc3CC3COC(=O)C32)OCO4)cc(OC)c1OC(=O)Nc1ccccc1 (stereo not drawn) [Compound 1b-8, 4′-demethyl-4′-O-phenylcarbamoyl-1-deoxypodophyllotoxin] | 177 nM |  |  | 
COc1cc(C2c3cc4c(cc3CC3COC(=O)C32)OCO4)cc(OC)c1OC(=O)Nc1ccc(F)cc1 (stereo not drawn) [Compound 1b-9, 4′-demethyl-4′-O-(4-fluorophenylcarbamoyl)-1-deoxypodophyllo-toxin] | 86.3 nM |  |  | 
COc1ccc(NC(=O)Oc2c(OC)cc(C3c4cc5c(cc4CC4COC(=O)C43)OCO5)cc2OC)cc1 (stereo not drawn) [Compound 1b-10, 4′-demethyl-4′-O-(4-methoxyphenylcarbamoyl)-1-deoxypodophyllotoxin] | 95.6 nM |  |  | 
COc1cc(C2c3cc4c(cc3CC3COC(=O)C32)OCO4)cc(OC)c1OC(=O)Nc1ccc(C)cc1 (stereo not drawn) [Compound 1b-11, 4′-demethyl-4′-O-(4-methylphenylcarbamoyl)-1-deoxypodophyllotoxin] | 99.3 nM |  |  | 
COc1cc(C2c3cc4c(cc3CC3COC(=O)C32)OCO4)cc(OC)c1OC(=O)Nc1ccc(SC)cc1 (stereo not drawn) [Compound 1b-12, 4′-demethyl-4′-O-(4-methylthiophenylcarbamoyl)-1-deoxypodophyllotoxin] | 106 nM |  |  | 
COc1ccccc1NC(=O)Oc1c(OC)cc(C2c3cc4c(cc3CC3COC(=O)C32)OCO4)cc1OC (stereo not drawn) [Compound 1b-13, 4′-demethyl-4′-O-(2-methoxyphenylcarbamoyl)-1-deoxypodophyllotoxin] | 66.2 nM |  |  | cytotoxicity compared with DPT [1]: stronger cytotoxicity than DPT

SMILES | EC50 [1] | ED50(mg/mL) for SK-MEL-2 [2] | ED50(mg/mL) for A549 [1] | other results
COc1cc(C2c3cc4c(cc3CC3COC(=O)C32)OCO4)cc(OC)c1OC(=O)NCc1ccccc1 (stereo not drawn) [Compound 1b-14, 4′-demethyl-4′-O-benzylcarbamoyl-1-deoxypodophyllotoxin] | 72 nM |  |  | cytotoxicity compared with DPT [1]: stronger cytotoxicity than DPT
COc1cc(C2c3cc4c(cc3CC3COC(=O)C32)OCO4)cc(OC)c1OC(=O)NC(=O)c1ccccc1 (stereo not drawn) [Compound 1b-15, 4′-demethyl-4′-O-benzoylcarbamoyl-1-deoxypodophyllotoxin] | 77 nM |  |  | 
COc1cc(C2c3cc4c(cc3CC3COC(=O)C32)OCO4)cc(OC)c1OC(=O)NS(=O)(=O)c1ccccc1 (stereo not drawn) [Compound 1b-16, 4′-demethyl-4′-O-benzenesulfonylcarbamoyl-1-deoxypodophyllo-toxin] | 50.6 nM |  |  | cytotoxicity compared with DPT [1]: stronger cytotoxicity than DPT
COc1cc(C=CC(=O)Oc2c(OC)cc(C3c4cc5c(cc4CC4COC(=O)C43)OCO5)cc2OC)cc(OC)c1OC (stereo not drawn) [Compound 1c-1, 4′-demethyl-4′-O-(3,4,5-trimethoxyphenylcinnamoyl)-1-deoxypodophyllotoxin] |  |  |  | pEC50 [1]: 6.97
COc1cc(C2c3cc4c(cc3CC3COC(=O)C32)OCO4)cc(OC)c1OC(=O)Cc1ccc(N(C)C)cc1 (stereo not drawn) [Compound 1c-2, 4′-demethyl-4′-O-(4-dimethylaminophenylacetyl)-1-deoxypodophyllotoxin] |  |  |  | pEC50 [1]: 6.97
COc1cc(C2c3cc4c(cc3CC3COC(=O)C32)OCO4)cc(OC)c1OC(C)=O (stereo not drawn) [Compound 1c-3, 4′-demethyl-4′-O-acetyl-1-deoxypodophyllotoxin] |  | 0.006 mg/mL | 0.003 mg/mL | 
CCC(=O)Oc1c(OC)cc(C2c3cc4c(cc3CC3COC(=O)C32)OCO4)cc1OC (stereo not drawn) [Compound 1c-4, 4′-demethyl-4′-O-propanoyl-1-deoxypodophyllotoxin] |  | 0.010 mg/mL | 0.004 mg/mL | 
CCCC(=O)Oc1c(OC)cc(C2c3cc4c(cc3CC3COC(=O)C32)OCO4)cc1OC (stereo not drawn) [Compound 1c-5, 4′-demethyl-4′-O-butanoyl-1-deoxypodophyllotoxin] |  | 0.017 mg/mL | 0.005 mg/mL | 
COc1cc(C2c3cc4c(cc3CC3COC(=O)C32)OCO4)cc(OC)c1OC(=O)CC(C)C (stereo not drawn) [Compound 1c-6, 4′-demethyl-4′-O-(3′-methylbutanoyl)-1-deoxypodophyllotoxin] |  | 0.089 mg/mL | 0.006 mg/mL | 
CCCCCCC(=O)Oc1c(OC)cc(C2c3cc4c(cc3CC3COC(=O)C32)OCO4)cc1OC (stereo not drawn) [Compound 1c-7, 4′-demethyl-4′-O-heptanoyl-1-deoxypodophyllotoxin] |  | 0.078 mg/mL | 0.013 mg/mL | 
CCCCCCCC(=O)Oc1c(OC)cc(C2c3cc4c(cc3CC3COC(=O)C32)OCO4)cc1OC (stereo not drawn) [Compound 1c-8, 4′-demethyl-4′-O-octanoyl-1-deoxypodophyllotoxin] |  | 0.030 mg/mL | 0.009 mg/mL | 
CCCCCCCCCC(=O)Oc1c(OC)cc(C2c3cc4c(cc3CC3COC(=O)C32)OCO4)cc1OC (stereo not drawn) [Compound 1c-9, 4′-demethyl-4′-O-decanoyl-1-deoxypodophyllotoxin] |  | 0.004 mg/mL | 0.027 mg/mL | 
COc1cc(C2c3cc4c(cc3CC3COC(=O)C32)OCO4)cc(OC)c1OC(=O)c1ccccc1 (stereo not drawn) [Compound 1c-10, 4′-demethyl-4′-O-benzoyl-1-deoxypodophyllotoxin] |  | 0.066 mg/mL | 0.095 mg/mL | 
CCCCCCCCCCCC(=O)Oc1c(OC)cc(C2c3cc4c(cc3CC3COC(=O)C32)OCO4)cc1OC (stereo not drawn) [Compound 1c-11, 4′-demethyl-4′-O-dodecanoyl-1-deoxypodophyllotoxin] |  | 0.025 mg/mL | 0.030 mg/mL | 
CCCCCCCCCCCCCC(=O)Oc1c(OC)cc(C2c3cc4c(cc3CC3COC(=O)C32)OCO4)cc1OC (stereo not drawn) [Compound 1c-12, 4′-demethyl-4′-O-tetradecanoyl-1-deoxypodophyllotoxin] |  | 0.050 mg/mL | 0.041 mg/mL | 
CCCCCCCCCCCCCCCC(=O)Oc1c(OC)cc(C2c3cc4c(cc3CC3COC(=O)C32)OCO4)cc1OC (stereo not drawn) [Compound 1c-13, 4′-demethyl-4′-O-hexadecanoyl-1-deoxypodophyllotoxin] |  | 0.290 mg/mL | 0.268 mg/mL | 
